# US12729377B2, “RNAi agents and compositions for inhibiting expression of angiopoietin-like 3 (ANGPTL3), and methods of use” (Arrowhead Pharmaceuticals, Inc., priority 2017, dated 2026)
# In the oligonucleotide strings, read from the 5' end, every base follows the letter of its sugar. An asterisk marks phosphorothioate; unmarked linkages are phosphodiester. Other units and linkages are bracketed, terminal groups are in braces. A string of capitals states the bases alone. {NAG37} = tridentate N-acetyl-galactosamine targeting ligand, structure (NAG37)s; [invAb] = inverted abasic unit; m = 2'-O-methyl; f = 2'-fluoro
# Key:
# [1] = tested on: ANGPTL3 gene; test: Example 10: serum triglycerides in mice; assay type: in vivo; conditions: 0.5 mg/kg single SC injection day 1, female C57bl/6 mice, n=3, ratio to D5W control
# Procedure: (§1) To assess the in vivo activity of further ANGPTL3 RNAi agents that are designed to target position 304 on the ANGPTL3 gene, six- to eight-week-old female C57bl/6 mice were used. Pre-dose serum samples were taken at day −1 after a four hour fast. At day 1, each mouse was given a single subcutaneous administration of 200 μl containing 0.5 mg/kg (mpk) of an ANGPTL3 RNAi agent in D5W (dextrose in 5% water), or control (D5W) with no RNAi agent, according to the dosing groups recited in Table 47.
# Each of the RNAi agents included a modified sequence and an N-acetyl-galactosamine-containing targeting ligand conjugated to the 5′ terminal end of the sense strand. (See Tables 3, 4, and 5 for modified sequences and targeting ligand structures). As noted above, each of the ANGPTL3 RNAi agents dosed in this study included nucleotide sequences designed to target the ANGPTL3 gene at position 304. The injections were performed between the skin and muscle (i.e. subcutaneous injections) into the loose skin over the neck and shoulder area. Three (3) mice in each group were tested (n=3). Serum was collected on days 8, 15, 22, 29, and for some groups on day 36 (i.e., Groups 1, 2, and 9-13 only). Mice were fasted for four hours prior to each collection. ANGPTL3 protein levels in serum were measured by ELISA assay (R&D Systems), according to the manufacturer's recommendations. Triglycerides, total cholesterol, high-density lipoprotein (HDL), and low-density lipoprotein (LDL) in serum were measured on a Cobas® Integra 400 (Roche Diagnostics), according to the manufacturer's recommendations.
# (§2) The ANGPTL3 protein levels, triglyceride levels, total cholesterol levels, HDL levels, and LDL levels for each animal were normalized. For normalization, the level of ANGPTL3 protein, triglyceride, HDL, and total cholesterol, respectively, for each animal at a time point, was divided by the pre-treatment level of expression in that animal (in this case at day −1) to determine the ratio of expression “normalized to pre-treatment.” Expression at a specific time point was then normalized to the D5W control group by dividing the “normalized to pre-treatment” ratio for an individual animal by the mean “normalized to pretreatment” ratio of all mice in the D5W control group.
# [2] = tested on: ANGPTL3 gene; test: Example 11: dose response, serum LDL in mice; assay type: in vivo, C57bl/6 mice
# Procedure: as §1, with “dose response” for “in vivo activity”, “of” for “of further”, “agent AD05488,” for “agents that are designed to target position 304 on the ANGPTL3 gene,”, “the respective” for “0.5”, “dose” for “(mpk)”, “53:” for “47.”
# (§3) The RNAi agent tested (AD05488) included a modified sequence and an N-acetyl-galactosamine-containing targeting ligand conjugated to the 5′ terminal end of the sense strand. (See Tables 3, 4, and 5 for modified sequences and targeting ligand structures). The injections were performed between the skin and muscle (i.e. subcutaneous injections) into the loose skin over the neck and shoulder area. Four (4) mice in each group were tested (n=4). Serum was collected on days 8, 15, 22, and 29. Mice were fasted for four hours prior to each collection. ANGPTL3 protein levels in serum were measured by ELISA assay (R&D Systems), according to the manufacturer's recommendations. Triglycerides, total cholesterol, high-density lipoprotein (HDL), and low-density lipoprotein (LDL) in serum were measured on a Cobas® Integra 400 (Roche Diagnostics), according to the manufacturer's recommendations.
# as §2
# [3] = tested on: ANGPTL3 protein; test: Example 11: dose response, serum ANGPTL3 protein by ELISA in mice; assay type: in vivo, C57bl/6 mice
# Procedure: as §1, with “dose response” for “in vivo activity”, “of” for “of further”, “agent AD05488,” for “agents that are designed to target position 304 on the ANGPTL3 gene,”, “the respective” for “0.5”, “dose” for “(mpk)”, “53:” for “47.”
# as §3, §2
# [4] = 0.05 mg/kg single sc day 1, Day 8
# [5] = 0.05 mg/kg single sc day 1, Day 15
# [6] = 0.05 mg/kg single sc day 1, Day 22
# [7] = 0.05 mg/kg single sc day 1, Day 29
# [8] = 0.1 mg/kg single sc day 1, Day 8
# [9] = 0.1 mg/kg single sc day 1, Day 15
# [10] = 0.1 mg/kg single sc day 1, Day 22
# [11] = 0.1 mg/kg single sc day 1, Day 29
# [12] = 0.5 mg/kg single sc day 1, Day 8
# [13] = 0.5 mg/kg single sc day 1, Day 15
# [14] = 0.5 mg/kg single sc day 1, Day 22
# [15] = 0.5 mg/kg single sc day 1, Day 29
# [16] = 1.0 mg/kg single sc day 1, Day 8
# [17] = 1.0 mg/kg single sc day 1, Day 15
# [18] = 1.0 mg/kg single sc day 1, Day 22
# [19] = 1.0 mg/kg single sc day 1, Day 29
# [20] = 2.5 mg/kg single sc day 1, Day 8
# [21] = 2.5 mg/kg single sc day 1, Day 15
# [22] = 2.5 mg/kg single sc day 1, Day 22
# [23] = 2.5 mg/kg single sc day 1, Day 29
# [24] = 5.0 mg/kg single sc day 1, Day 8
# [25] = 5.0 mg/kg single sc day 1, Day 15
# [26] = 5.0 mg/kg single sc day 1, Day 22
# [27] = 5.0 mg/kg single sc day 1, Day 29
substance,measurement,setting,value
"AD05488: RNAi agent duplex: antisense AM07235-AS, sense AM07234-SS (antisense mU*fA*mC*fUmGfAmUfCmAfAmAfUmAfUmGfUmUfGmAfG*mC; sense {NAG37}*[invAb]*mGmCmUmCmAmAmCmAfUfAfUmUmUmGmAmUmCmAmGmUmA*[invAb])",Average Triglycerides Normalized to Pre-Treatmen and Control,[1]; Day 8,0.646
same,Average Triglycerides Normalized to Pre-Treatmen and Control,[1]; Day 15,0.669
same,Average Triglycerides Normalized to Pre-Treatmen and Control,[1]; Day 22,0.723
same,Average Triglycerides Normalized to Pre-Treatmen and Control,[1]; Day 29,0.739
same,Average Triglycerides Normalized to Pre-Treatmen and Control,[1]; Day 36,0.843
same,Avg LDL Normalized to Pre-Treatment and Control,[2]; [4],0.798
same,Avg LDL Normalized to Pre-Treatment and Control,[2]; [5],1.147
same,Avg LDL Normalized to Pre-Treatment and Control,[2]; [6],0.772
same,Avg LDL Normalized to Pre-Treatment and Control,[2]; [7],0.822
same,Avg LDL Normalized to Pre-Treatment and Control,[2]; [8],0.878
same,Avg LDL Normalized to Pre-Treatment and Control,[2]; [9],1.153
same,Avg LDL Normalized to Pre-Treatment and Control,[2]; [10],0.732
same,Avg LDL Normalized to Pre-Treatment and Control,[2]; [11],0.845
same,Avg LDL Normalized to Pre-Treatment and Control,[2]; [12],0.816
same,Avg LDL Normalized to Pre-Treatment and Control,[2]; [13],1.137
same,Avg LDL Normalized to Pre-Treatment and Control,[2]; [14],0.866
same,Avg LDL Normalized to Pre-Treatment and Control,[2]; [15],0.896
same,Avg LDL Normalized to Pre-Treatment and Control,[2]; [16],0.760
same,Avg LDL Normalized to Pre-Treatment and Control,[2]; [17],1.145
same,Avg LDL Normalized to Pre-Treatment and Control,[2]; [18],0.993
same,Avg LDL Normalized to Pre-Treatment and Control,[2]; [19],1.123
same,Avg LDL Normalized to Pre-Treatment and Control,[2]; [20],0.805
same,Avg LDL Normalized to Pre-Treatment and Control,[2]; [21],1.185
same,Avg LDL Normalized to Pre-Treatment and Control,[2]; [22],0.915
same,Avg LDL Normalized to Pre-Treatment and Control,[2]; [23],0.814
same,Avg LDL Normalized to Pre-Treatment and Control,[2]; [24],0.802
same,Avg LDL Normalized to Pre-Treatment and Control,[2]; [25],1.170
same,Avg LDL Normalized to Pre-Treatment and Control,[2]; [26],0.909
same,Avg LDL Normalized to Pre-Treatment and Control,[2]; [27],0.932
same,Avg ANGPTL3 Protein Normalized to Pre-Treatment and Control,[3]; [4],0.788
same,Avg ANGPTL3 Protein Normalized to Pre-Treatment and Control,[3]; [5],0.929
same,Avg ANGPTL3 Protein Normalized to Pre-Treatment and Control,[3]; [6],1.106
same,Avg ANGPTL3 Protein Normalized to Pre-Treatment and Control,[3]; [7],0.990
same,Avg ANGPTL3 Protein Normalized to Pre-Treatment and Control,[3]; [8],0.511
same,Avg ANGPTL3 Protein Normalized to Pre-Treatment and Control,[3]; [9],0.757
same,Avg ANGPTL3 Protein Normalized to Pre-Treatment and Control,[3]; [10],0.720
same,Avg ANGPTL3 Protein Normalized to Pre-Treatment and Control,[3]; [11],0.734
same,Avg ANGPTL3 Protein Normalized to Pre-Treatment and Control,[3]; [12],0.207
same,Avg ANGPTL3 Protein Normalized to Pre-Treatment and Control,[3]; [13],0.261
same,Avg ANGPTL3 Protein Normalized to Pre-Treatment and Control,[3]; [14],0.310
same,Avg ANGPTL3 Protein Normalized to Pre-Treatment and Control,[3]; [15],0.349
same,Avg ANGPTL3 Protein Normalized to Pre-Treatment and Control,[3]; [16],0.116
same,Avg ANGPTL3 Protein Normalized to Pre-Treatment and Control,[3]; [17],0.141
same,Avg ANGPTL3 Protein Normalized to Pre-Treatment and Control,[3]; [18],0.171
same,Avg ANGPTL3 Protein Normalized to Pre-Treatment and Control,[3]; [19],0.199
same,Avg ANGPTL3 Protein Normalized to Pre-Treatment and Control,[3]; [20],0.064
same,Avg ANGPTL3 Protein Normalized to Pre-Treatment and Control,[3]; [21],0.047
same,Avg ANGPTL3 Protein Normalized to Pre-Treatment and Control,[3]; [22],0.056
same,Avg ANGPTL3 Protein Normalized to Pre-Treatment and Control,[3]; [23],0.063
same,Avg ANGPTL3 Protein Normalized to Pre-Treatment and Control,[3]; [24],0.018
same,Avg ANGPTL3 Protein Normalized to Pre-Treatment and Control,[3]; [25],0.019
same,Avg ANGPTL3 Protein Normalized to Pre-Treatment and Control,[3]; [26],0.029
same,Avg ANGPTL3 Protein Normalized to Pre-Treatment and Control,[3]; [27],0.031
same,reduction in ANGPTL3 protein,"[3]; dose response, single subcutaneous dose, C57bl/6 mice",reduction
